From US20240239775A1, “FXR REGULATOR, PREPARATION METHOD THEREFOR, PHARMACEUTICAL COMPOSITION THEREOF AND USE THEREOF” (QINGDAO RUIJI MEDICAL TECHNOLOGY CO., LTD., priority 2021, published 2024)

How the values were obtained:
FXR = target: T1, FXR (Homo sapiens, UniProt Q96RI1); assay: FXR antagonist screening by TR-FRET (LanthaScreen TR-FRET FXR co-activation assay kit); format: biochemical; conditions: Table 1.1, FXR antagonistic activity; TR-FRET with CDCA; geometric means of at least two independent runs
T1 construct: 5 μL of 20 nM FXR-LBD Complete Coregulator buffer G; purchased ThermoFisher PV4833
T1 sequence (Q96RI1 262-486 limits assumed): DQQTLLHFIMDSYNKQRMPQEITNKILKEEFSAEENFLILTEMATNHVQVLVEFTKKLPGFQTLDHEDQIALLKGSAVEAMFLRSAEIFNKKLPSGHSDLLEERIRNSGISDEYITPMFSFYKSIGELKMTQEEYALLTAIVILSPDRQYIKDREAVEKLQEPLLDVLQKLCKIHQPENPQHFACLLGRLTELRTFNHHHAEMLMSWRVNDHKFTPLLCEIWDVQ
How it was run: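 FXR-LBD (20 nM working solution) mixed with compound, CDCA (200 μM working solution) as agonist, Fluorescein-SRC2-2 and Tb-anti-GST antibody in Coregulator buffer G; 10 h at room temperature. Coactivator recruitment read by TR-FRET, triplicate wells.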

Row | Structure (SMILES) | IC50 (FXR) [µM] | melting point
1 | Cc1ccccc1CN(CCc1ccccc1)S(=O)(=O)c1ccc2oc(C(=O)O)c(C)c2c1 [Example F27-S17, 3-methyl-5-(N-(2-methylbenzyl)-N-phenethylsulfamoyl)benzofuran-2-carboxylic acid] | 10 to 50 | 199 to 200 °C
2 | Cc1c(C(=O)O)oc2ccc(S(=O)(=O)N(CCc3ccccc3)Cc3ccccc3C(F)(F)F)cc12 [Example F27-S18, 3-methyl-5-(N-(2-trifluoromethylbenzyl)-N-phenethylsulfamoyl)benzofuran-2-carboxylic acid] | 10 to 50 | 138 to 139 °C
3 | CCCOC(=O)N1CCN(c2ccc(N(CCc3ccccc3)S(=O)(=O)c3ccc4oc(C(=O)O)c(C)c4c3)cc2)CC1 [Example F27-S67, 3-methyl-5-(N-(4-(4-(propoxycarbonyl)piperazin-1-yl)phenyl)-N-phenethylsulfamoyl)benzofuran-2-carboxylic acid] | 10 to 50 | > 380 °C (dec.)
4 | Cc1c(C(=O)O)oc2ccc(S(=O)(=O)N(CCc3ccccc3)Cc3ccc(-c4ccccc4C(=O)OC(C)(C)C)cc3)cc12 [Example F27-S84, 3-methyl-5-(N-((2′-(tert-butoxycarbonyl)-[1,1′-biphenyl]-4-yl)methyl)-N-phenethylsulfamoyl)benzofuran-2-carboxylic acid] | 10 to 50 | 197 to 198 °C
5 | Cc1c(C(=O)O)oc2ccc(S(=O)(=O)N(CCc3ccccc3)Cc3ccc(/C=C/C(=O)O)cc3)cc12 [Example F27-S42, (E)-3-methyl-5-(N-(4-(2-carboxyvinyl)benzyl)-N-phenethylsulfamoyl)benzofuran-2-carboxylic acid] | 50 to 100 | 270 to 271 °C
6 | Cc1c(C(=O)O)oc2ccc(S(=O)(=O)N(CCc3ccccc3)c3ccc(N4CCN(C(=O)OC(C)(C)C)CC4)nc3)cc12 [Example F27-S75, 3-methyl-5-(N-(6-(4-(tert-butoxycarbonyl)piperazin-1-yl)pyridin-3-yl)-N-phenethylsulfamoyl)benzofuran-2-carboxylic acid] | 10 to 50 | > 380 °C (dec.)
7 | Cc1c(C(=O)O)oc2ccc(S(=O)(=O)N(CCc3ccccc3)c3ccc(C4CCN(C(=O)OC(C)(C)C)CC4)cc3)cc12 [Example F27-S73, 3-methyl-5-(N-(4-(1-(tert-butoxycarbonyl)piperidin-4-yl)phenyl)-N-phenethylsulfamoyl)benzofuran-2-carboxylic acid] | 0.1 to 10 | > 380 °C (dec.)
8 | Cc1c(C(=O)O)oc2ccc(S(=O)(=O)N(CCc3ccccc3)Cc3ccc(Cl)cc3)cc12 [Example F27-S29, 3-methyl-5-(N-(4-chlorobenzyl)-N-phenethylsulfamoyl)benzofuran-2-carboxylic acid] | 10 to 50 | 172 to 173 °C
9 | Cc1c(C(=O)O)oc2ccc(S(=O)(=O)N(CCc3ccccc3)Cc3ccc(Br)cc3F)cc12 [Example F27-S53, 3-methyl-5-(N-(2-fluoro-4-bromobenzyl)-N-phenethylsulfamoyl)benzofuran-2-carboxylic acid] | 10 to 50 | > 380 °C (dec.)
10 | Cc1c(C(=O)O)oc2ccc(S(=O)(=O)N(CCc3ccccc3)Cc3ccc(C(C)C)cc3)cc12 [Example F27-S36, 3-methyl-5-(N-(4-isopropylbenzyl)-N-phenethylsulfamoyl)benzofuran-2-carboxylic acid] | 10 to 50 | 206 to 207 °C
11 | Cc1ccc(CN(CCc2ccccc2)S(=O)(=O)c2ccc3oc(C(=O)O)c(C)c3c2)cc1 [Example F27-S31, 3-methyl-5-(N-(4-methylbenzyl)-N-phenethylsulfamoyl)benzofuran-2-carboxylic acid] | 10 to 50 | > 380 °C (dec.)
12 | CC(=O)N1CCN(c2ccccc2CN(CCc2ccccc2)S(=O)(=O)c2ccc3oc(C(=O)O)c(C)c3c2)CC1 [Example F27-S100, 3-methyl-5-(N-(2-(4-acetylpiperazin-1-yl)benzyl)-N-phenethylsulfamoyl)benzofuran-2-carboxylic acid] | 10 to 50 | 236 to 237 °C
13 | Cc1c(C(=O)O)oc2ccc(S(=O)(=O)N(CCc3ccccc3)Cc3c(F)cccc3C(F)(F)F)cc12 [Example F27-S48, 3-methyl-5-(N-(2-fluoro-6-(trifluoromethyl)benzyl)-N-phenethylsulfamoyl)benzofuran-2-carboxylic acid] | 10 to 50 | 99 to 100 °C
14 | Cc1c(C(=O)O)oc2ccc(S(=O)(=O)N(CCc3ccccc3)Cc3ccc(OC(F)(F)F)cc3)cc12 [Example F27-S34, 3-methyl-5-(N-(4-(trifluoromethoxy)benzyl)-N-phenethylsulfamoyl)benzofuran-2-carboxylic acid] | 10 to 50 | 216 to 217 °C
15 | Cc1cccc(CN(CCc2ccccc2)S(=O)(=O)c2ccc3oc(C(=O)O)c(C)c3c2)c1 [Example F27-S23, 3-methyl-5-(N-(3-methylbenzyl)-N-phenethylsulfamoyl)benzofuran-2-carboxylic acid] | 10 to 50 | > 380 °C (dec.)
16 | Cc1cccc(C)c1CN(CCc1ccccc1)S(=O)(=O)c1ccc2oc(C(=O)O)c(C)c2c1 [Example F27-S50, 3-methyl-5-(N-(2,6-dimethylbenzyl)-N-phenethylsulfamoyl)benzofuran-2-carboxylic acid] | 0.1 to 10 | 211 to 212 °C
17 | Cc1c(C(=O)O)oc2ccc(S(=O)(=O)N(CCc3ccccc3)c3ccc(N4CCOCC4)cc3)cc12 [Example F27-S63, 3-methyl-5-(N-(4-morpholinophenyl)-N-phenethylsulfamoyl)benzofuran-2-carboxyli acid] | 50 to 100 | > 380 °C (dec.)
18 | Cc1c(C(=O)O)oc2ccc(S(=O)(=O)N(CCc3ccccc3)Cc3ccc(F)cc3Cl)cc12 [Example F27-S56, 3-methyl-5-(N-(2-chloro-4-fluorobenzyl)-N-phenethylsulfamoyl)benzofuran-2-carboxylic acid] | 10 to 50 | 145 to 146 °C
19 | Cc1c(C(=O)O)oc2ccc(S(=O)(=O)N(CCc3ccccc3)Cc3ccc(C(C)(C)C)cc3)cc12 [Example F27-S37, 3-methyl-5-(N-(4-tert-butylbenzyl)-N-phenethylsulfamoyl)benzofuran-2-carboxylic acid] | 10 to 50 | 206 to 207 °C
20 | Cc1c(C(=O)O)oc2ccc(S(=O)(=O)N(CCc3ccccc3)Cc3ccc(CC(=O)O)cc3)cc12 [Example F27-S41, 3-methyl-5-(N-(4-(carboxymethyl)benzyl)-N-phenethylsulfamoyl)benzofuran-2-carboxylic acid] | 50 to 100 | 182 to 183 °C
21 | Cc1c(C(=O)O)oc2ccc(S(=O)(=O)N(CCc3ccccc3)c3ccc(N4CCN(C)CC4)cc3)cc12 [Example F27-S64, 3-methyl-5-(N-(4-(4-methylpiperazin-1-yl)phenyl)-N-phenethylsulfamoyl)benzofuran-2-carboxylic acid] | 50 to 100 | 152 to 153 °C
22 | Cc1c(C(=O)O)oc2ccc(S(=O)(=O)N(CCc3ccccc3)Cc3ccccc3N3CC[N+](C)(C)CC3)cc12 [Example F27-S99, 4-(2-(((2-carboxy-3-methyl-N-phenethylbenzofuran)-5-sulfonamido)methyl)phenyl)-1,1-dimethylpiperazin-1-ium] | 50 to 100 | 143 to 144 °C
23 | Cc1c(C(=O)O)oc2ccc(S(=O)(=O)N(CCc3ccccc3)Cc3ccc(C(F)(F)F)cc3)cc12 [Example F27-S32, 3-methyl-5-(N-(4-(trifluoromethyl)benzyl)-N-phenethylsulfamoyl)benzofuran-2-carboxylic acid] | 10 to 50 | > 192 °C
24 | Cc1c(C(=O)O)oc2ccc(S(=O)(=O)N(CCc3ccccc3)c3ccc(N4CCN(C(=O)OC(C)(C)C)CC4)cc3)cc12 [Example F27-S65, 3-methyl-5-(N-(4-(4-(tert-butoxycarbonyl)piperazin-1-yl)phenyl)-N-phenethylsulfamoyl)benzofuran-2-carboxylic acid] | 10 to 50 | > 380 °C (dec.)
25 | Cc1c(C(=O)O)oc2ccc(S(=O)(=O)N(CCc3ccccc3)Cc3c(Cl)cccc3Cl)cc12 [Example F27-S49, 3-methyl-5-(N-(2,6-dichlorobenzyl)-N-phenethylsulfamoyl)benzofuran-2-carboxylic acid] | 0.1 to 10 | 176 to 177 °C
26 | Cc1c(C(=O)O)oc2ccc(S(=O)(=O)N(CCc3ccccc3)Cc3cccc(Oc4ccccc4)c3)cc12 [Example F27-S27, 3-methyl-5-(N-(3-phenoxybenzyl)-N-phenethylsulfamoyl)benzofuran-2-carboxylic acid] | 10 to 50 | > 183 °C
27 | Cc1c(C(=O)O)oc2ccc(S(=O)(=O)N(CCc3ccccc3)c3ccccc3N3CCN(C(=O)OC(C)(C)C)CC3)cc12 [Example F27-S77, 3-methyl-5-(N-(2-(4-(tert-butoxycarbonyl)piperazin-1-yl)phenyl)-N-phenethylsulfamoyl)benzofuran-2-carboxylic acid] | 0.1 to 10 | 168 to 169 °C
28 | Cc1c(C(=O)O)oc2ccc(S(=O)(=O)N(CCc3ccccc3)c3ccccc3N3CCN(C(=O)CC(C)(C)C)CC3)cc12 [Example F27-S94] | 0.1 to 10 | 191 to 192 °C
29 | Cc1c(C(=O)O)oc2ccc(S(=O)(=O)N(CCc3ccccc3)Cc3cccc(Br)c3)cc12 [Example F27-S22, 3-methyl-5-(N-(3-bromobenzyl)-N-phenethylsulfamoyl)benzofuran-2-carboxylic acid] | 10 to 50 | > 380 °C (dec.)
